{"source": "patent US6713077B1", "about": "“Control of shoot/foliar feeding pests with pesticide seed treatments” (Monsanto Technology, LLC, priority 1999, dated 2004)", "key": {"[1]": {"settings": "temperature not given; cited from earlier work"}, "[2]": {"settings": "cited from earlier work"}, "black cutworm larvae [3]": {"system": "black cutworm larvae", "assay": "Example 7: stand reduction of corn by black cutworm, bifenthrin, lambda-cyhalothrin and tefluthrin seed treatment", "type": "in vivo", "settings": "seed treatment 209 gm AI/100 kg of seed", "protocol": "A lambda-cyhalothrin seed treatment formulation was prepared from WARRIOR T 11.4 CS formulation (Zeneca Ag Products, Wilmington, Del.), as described in Example 1. A seed treatment formulation was also prepared by the method as described in Example 1, except from CAPTURE® 2 EC (bifenthrin; available from FMC). Also, a seed treatment formulation was prepared from RAZE 2.5 FS formulation (available from Wilbur-Ellis Co.), containing 26.8% tefluthrin. Each of these seed treatment formulations were applied for one minute at room temperature to twenty-five grams of Pioneer corn seed (Cultivar PN3394) in a rotostatic seed treater at the treatment rates noted in Table 8, below. The treated seeds were allowed to sit uncapped for four to twenty-four hours before planting.\n(§1) Treated and untreated seeds (Pioneer hybrid PN3394) were planted in a soil mix consisting of Dupo silt loam, 30% Perlite, 20% coarse sand (WB-10 grade) in six groups of tubs (20 in. L×15 in. W×8 in. D). Twelve seeds were planted per tub and three tubs were planted for each treatment regimen. […]\n(§2) The corn plants were infested at 12 DAP, which corresponds to late growth stage 11 by placing two black cutworm larvae at 3/4 instar on the soil surface near the base of the plant. […] The percent stand reduction due to plant cutting was calculated by dividing the number of cut plants into the number of plants present at infestation."}, "black cutworm larvae [4]": {"system": "black cutworm larvae", "assay": "Example 8: stand reduction of corn by black cutworm, RAZE versus WARRIOR T seed treatment", "type": "in vivo", "settings": "band w/ incorporation 30 (grams/hectare)", "protocol": "A lambda-cyhalothrin seed treatment formulation was prepared from WARRIOR T 11.4 CS formulation (Zeneca Ag Products, Wilmington, Del.), as described in Example 1. Also, a tefluthrin seed treatment formulation was prepared from RAZE […] formulation (available from Wilbur-Ellis Co.), by the same method. Each of these seed treatment formulations were applied for one minute at room temperature to twenty-five grams of Pioneer corn seed (Cultivar PN3394) in a rotostatic seed treater at the treatment rates noted in Table 9, below. The treated seeds were allowed to sit uncapped for four to twenty-four hours before planting.\nas §1, with “regimen. Soil applications of FORCE 3GR, which contains 3% tefluthrin as the active ingredient, were used for two sets of tubs containing untreated seeds.” for “regimen.”\nas §2"}, "black cutworm larvae [5]": {"system": "black cutworm larvae", "assay": "Example 5: stand reduction of corn by black cutworm, lambda cyhalothrin or tefluthrin seed treatment", "type": "in vivo", "settings": "band w/ incorporation 30 (grams/hectare)", "protocol": "A lambda-cyhalothrin seed treatment formulation was prepared from the WARRIOR T insecticide and corn seed was prepared and treated as described in Example 1, except that the treatment levels were 125, 228 and 358 gm active ingredient/100 kg seed. A tefluthrin seed treatment formulation was also prepared from RAZE 2.5 FS, which contains tefluthrin as the active ingredient, into water as a carrier. Treated and untreated seeds were planted and cultivated as described as described in Example 1. Again, FORCE 3GR was applied and incorporated into a 5 inch band on the soil surface at the time of planting. The tubs were overhead irrigated until the plants were infested with black cutworm larvae.\nThe corn plants were infested at 12 DAP, as described in Example 1. Plants were rated at 10 days after infestation (DAI) for the number of cut plants. The percent stand reduction due to plant cutting was calculated by dividing the number of cut plants into the number of plants present at infestation."}}, "note": "Like-named read-outs stand apart in the source and are kept apart here.", "data": [{"smiles": "Cc1c(COC(=O)C2C(C=C(Cl)C(F)(F)F)C2(C)C)cccc1-c1ccccc1", "note": "(stereo not drawn) [Bifenthrin, (2-methyl [1,1′-biphenyl]-3-yl)methyl 3-(2-chloro-3,3,3-trifluoro-1-propenyl)-2,2-dimethyl-cyclopropanecarboxylate]", "values": [{"measurement": "Water solubility", "setting": "[1]", "value": 0.1, "unit": "µg/mL"}, {"measurement": "Vapor pressure", "setting": "[2]; 25° C.", "value": 0.024, "unit": "mPa"}, {"measurement": "STAND REDUCTION (%, 10 days after infestation)", "setting": "black cutworm larvae [3]", "value": "total protection"}]}, {"smiles": "Cc1c(F)c(F)c(COC(=O)[C@@H]2[C@H](/C=C(\\Cl)C(F)(F)F)C2(C)C)c(F)c1F", "note": "(racemic) [Tefluthrin, (2,3,5,6-tetrafluoro-4-methylphenyl)-methyl-(1 alpha, 3 alpha)-(Z)-(±)-3-(2-chloro-3,3,3-trifluoro-1-propenyl)-2,2-dimethylcyclopropanecarboxylate]", "values": [{"measurement": "STAND REDUCTION (%, 10 days after infestation)", "setting": "black cutworm larvae [4]", "value": "total protection"}, {"measurement": "STAND REDUCTION (%, 10 days after infestation)", "setting": "black cutworm larvae [5]", "value": "total protection"}, {"measurement": "Vapor pressure", "setting": "[2]; 20° C.", "value": 8, "unit": "mPa"}]}]}
